According to US20240101528A1, “SUBSTITUTED PYRAZOLO PIPERIDINE CARBOXYLIC ACIDS” (BAYER AKTIENGESELLSCHAFT, priority 2020, published 2024):
Counter-ions that a name gives are not always drawn.

Biological target: T1, recombinant guanylate cyclase reporter cell line (Rattus norvegicus, UniProt P20595)
T1 construct: expressed in transfected cells
T1 sequence (P20595 1-619): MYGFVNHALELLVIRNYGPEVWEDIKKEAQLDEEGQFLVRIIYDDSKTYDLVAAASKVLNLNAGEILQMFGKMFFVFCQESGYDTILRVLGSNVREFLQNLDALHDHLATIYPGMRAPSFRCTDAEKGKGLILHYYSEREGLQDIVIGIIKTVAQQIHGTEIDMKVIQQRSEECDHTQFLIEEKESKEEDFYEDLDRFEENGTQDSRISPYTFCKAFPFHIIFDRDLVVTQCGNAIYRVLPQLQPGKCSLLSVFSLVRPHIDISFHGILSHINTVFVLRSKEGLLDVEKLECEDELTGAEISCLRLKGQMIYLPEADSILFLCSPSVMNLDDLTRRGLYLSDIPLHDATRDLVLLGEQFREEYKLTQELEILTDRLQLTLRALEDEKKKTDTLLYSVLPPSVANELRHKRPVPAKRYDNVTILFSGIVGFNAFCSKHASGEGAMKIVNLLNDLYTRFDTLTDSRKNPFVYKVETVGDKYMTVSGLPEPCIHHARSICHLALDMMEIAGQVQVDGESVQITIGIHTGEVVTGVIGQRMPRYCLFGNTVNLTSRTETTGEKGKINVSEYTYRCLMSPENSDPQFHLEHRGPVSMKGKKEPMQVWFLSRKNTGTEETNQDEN
T1 sequence (P19686 1-690 partner): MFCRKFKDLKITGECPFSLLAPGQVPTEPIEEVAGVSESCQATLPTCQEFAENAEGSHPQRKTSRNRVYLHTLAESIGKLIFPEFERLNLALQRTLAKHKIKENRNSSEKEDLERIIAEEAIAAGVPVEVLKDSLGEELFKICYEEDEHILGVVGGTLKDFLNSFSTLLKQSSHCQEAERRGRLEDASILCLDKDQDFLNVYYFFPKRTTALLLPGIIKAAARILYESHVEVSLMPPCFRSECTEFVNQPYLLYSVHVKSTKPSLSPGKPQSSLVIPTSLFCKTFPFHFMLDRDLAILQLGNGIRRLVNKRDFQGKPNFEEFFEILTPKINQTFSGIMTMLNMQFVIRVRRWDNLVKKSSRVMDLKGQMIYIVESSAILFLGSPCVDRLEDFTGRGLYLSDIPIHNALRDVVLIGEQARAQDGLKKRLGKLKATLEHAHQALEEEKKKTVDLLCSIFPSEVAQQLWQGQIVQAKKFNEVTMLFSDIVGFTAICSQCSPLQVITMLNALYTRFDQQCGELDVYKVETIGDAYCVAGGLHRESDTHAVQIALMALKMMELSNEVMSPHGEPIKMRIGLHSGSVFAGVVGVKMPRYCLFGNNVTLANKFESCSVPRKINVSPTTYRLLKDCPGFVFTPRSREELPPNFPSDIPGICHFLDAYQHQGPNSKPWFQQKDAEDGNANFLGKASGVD
Experiment: Effect on a recombinant guanylate cyclase reporter cell line
Format: cell-based
Conditions: for EC50: half maximal effective concentration; for MEC: minimum effective concentration
Experimental: B-1. Effect on a Recombinant Guanylate Cyclase Reporter Cell Line
The cellular activity of the compounds according to the invention was determined using a recombinant guanylate cyclase reporter cell line, as described in F. Wunder et al., Anal. Biochem. 339, 104-112 (2005).

SMILES | EC50 [nM] | MEC [nM]
O=C(O)c1cnn(C2CCCN(c3cc(Cl)ccc3-c3ccc(N4CCN(C5CC5)CC4)cc3)C2)c1C(F)F (single isomer, unassigned; enantiomer 2) [Example 9, 1-{1-[4-Chloro-4′-(4-cyclopropylpiperazin-1-yl)[biphenyl]-2-yl]piperidin-3-yl}-5-(difluoromethyl)-1H-pyrazole-4-carboxylic acid hydrochloride (Enantiomer 2)] | 36.5 | 3.0
O=C(O)c1cnn(C2CCCN(c3cc(Cl)ccc3-c3ccc(N4CCN(CC5CC5F)CC4)cc3)C2)c1C(F)F (mixture of isomers) [Example 32, 1-[1-[5-chloro-2-[4-[4-[(trans-2-fluorocyclopropyl)methyl]piperazin-1-yl]phenyl]phenyl]-3-piperidyl]-5-(difluoromethyl)pyrazole-4-carboxylic acid hydrochloride (Diastereoisomeric mixture 2)] | 2.7 | 0.3
CCN1CCN(c2ccc(-c3ccc(Cl)cc3N3CC(n4ncc(C(=O)O)c4C(F)F)CC(F)(F)C3)cc2)CC1 (single isomer, unassigned; enantiomer 2) [Example 53, 1-{1-[4-chloro-4′-(4-ethylpiperazin-1-yl)[biphenyl]-2-yl]-5,5-difluoropiperidin-3-yl}-5-(difluoromethyl)-1H-pyrazole-4-carboxylic acid hydrochloride (Enantiomer 2)] | 34 | 10.0
CN1CCN(c2ncc(-c3ccc(Cl)cc3N3CCCC(n4ncc(C(=O)O)c4C(F)F)C3)cn2)CC1 (single isomer, unassigned; enantiomer 2) [Example 71, 1-(1-{5-Chloro-2-[2-(4-methylpiperazin-1-yl)pyrimidin-5-yl]phenyl}piperidin-3-yl)-5-(difluoromethyl)-1H-pyrazole-4-carboxylic acid hydrochloride (Enantiomer 2)] | 92 | 30.0
CC(C)C(=O)N1CCN(c2ccc(-c3ccc(Cl)cc3N3CCCC(n4ncc(C(=O)O)c4C(F)F)C3)cc2)CC1 (single isomer, unassigned; enantiomer 2) [Example 48, 1-{1-[4-Chloro-4′-(4-isobutyrylpiperazin-1-yl)[biphenyl]-2-yl]piperidin-3-yl}-5-(difluoromethyl)-1H-pyrazole-4-carboxylic acid (Enantiomer 2)] | 7.5 | 3.0
O=C(O)c1cnn(C2CCCN(c3cc(Cl)ccc3-c3ccc(N4CCN(C5COC5)CC4)cc3)C2)c1C(F)F (single isomer, unassigned; enantiomer 2) [Example 43, 1-(1-{4-Chloro-4′-[4-(oxetan-3-yl)piperazin-1-yl][biphenyl]-2-yl}piperidin-3-yl)-5-(difluoromethyl)-1H-pyrazole-4-carboxylic acid hydrochloride (Enantiomer 2)] | 42.5 | 10.0
O=C(O)c1cnn(C2CCCN(c3cc(Cl)ccc3-c3ccc(N4CCN(CC(F)F)CC4)cc3)C2)c1C(F)F (single isomer, unassigned; enantiomer 1) [Example 18, 1-[1-{4-Chloro-4′-[4-(2,2-difluoroethyl)piperazin-1-yl][biphenyl]-2-yl}piperidin-3-yl]-5-(difluoromethyl)-1H-pyrazole-4-carboxylic acid hydrochloride (Enantiomer 1)] | < 1 | 0.3
CC(C)CC(=O)N1CCN(c2ccc(-c3ccc(Cl)cc3N3CCCC(n4ncc(C(=O)O)c4C(F)F)C3)cc2)CC1 (single isomer, unassigned; enantiomer 2) [Example 51, 1-(1-{4-Chloro-4′-[4-(3-methylbutanoyl)piperazin-1-yl][biphenyl]-2-yl}piperidin-3-yl)-5-(difluoromethyl)-1H-pyrazole-4-carboxylic acid (Enantiomer 2)] | 28.4 | 3.0
O=C(O)c1cnn(C2CCCN(c3cc(Cl)ccc3-c3ccc(N4CCN(CC5CC5F)CC4)cc3)C2)c1C(F)F (single isomer, unassigned; diastereomer 4) [Example 34, 1-[1-[5-Chloro-2-[4-[4-[(trans-2-fluorocyclopropyl)methyl]piperazin-1-yl]phenyl]phenyl]-3-piperidyl]-5-(difluoromethyl)pyrazole-4-carboxylic acid hydrochloride (Diastereomer 4)] | 3.4 | 0.3
CCCN1CCN(c2ccc(-c3ccc(Cl)cc3N3CCCC(n4ncc(C(=O)O)c4C(F)F)C3)cn2)CC1 (single isomer, unassigned; enantiomer 2) [Example 61, 1-(1-{5-Chloro-2-[6-(4-propylpiperazin-1-yl)pyridin-3-yl]phenyl}piperidin-3-yl)-5-(difluoromethyl)-1H-pyrazole-4-carboxylic acid hydrochloride (Enantiomer 2)] | 28.5 | 10.0
O=C(O)c1cnn(C2CCCN(c3cc(Cl)ccc3-c3ccc(N4CCN(C5COC5)CC4)cc3)C2)c1C(F)F (single isomer, unassigned; enantiomer 1) [Example 42, 1-(1-{4-Chloro-4′-[4-(oxetan-3-yl)piperazin-1-yl][biphenyl]-2-yl}piperidin-3-yl)-5-(difluoromethyl)-1H-pyrazole-4-carboxylic acid hydrochloride (Enantiomer 1)] | 71 | 30.0
O=C(O)c1cnn(C2CCCN(c3cc(Cl)ccc3-c3ccc(N4CCN(C(=O)C5CC5)CC4)cc3)C2)c1C(F)F (single isomer, unassigned; enantiomer 2) [Example 50, 1-(1-{4-Chloro-4′-[4-(3-cyclopropylcarbonyl)piperazin-1-yl][biphenyl]-2-yl}piperidin-3-yl)-5-(difluoromethyl)-1H-pyrazole-4-carboxylic acid (Enantiomer 2)] | 1.9 | 0.3
O=C(O)c1cnn(C2CCCN(c3cc(Cl)ccc3-c3ccc(N4CCN(CC5CC5)CC4)nc3)C2)c1C(F)F (single isomer, unassigned; enantiomer 2) [Example 63, 1-[1-(5-Chloro-2-{6-[4-(cyclopropylmethyl)piperazin-1-yl]pyridin-3-yl}phenyl)piperidin-3-yl]-5-(difluoromethyl)-1H-pyrazole-4-carboxylic acid hydrochloride (Enantiomer 2)] | 68 | 10.0
CC(C)N1CCN(c2ccc(-c3ccc(Cl)cc3N3CCCC(n4ncc(C(=O)O)c4C(F)F)C3)cc2)CC1 (single isomer, unassigned; enantiomer 2) [Example 7, 1-{1-[4-Chloro-4′-(4-isopropylpiperazin-1-yl)[biphenyl]-2-yl]piperidin-3-yl}-5-(difluoromethyl)-1H-pyrazole-4-carboxylic acid hydrochloride (Enantiomer 2)] | 43.3 | 10.0
Cc1cc(N2CCN(CC(F)(F)F)CC2)ncc1-c1ccc(Cl)cc1N1CCCC(n2ncc(C(=O)O)c2C(F)F)C1 (single isomer, unassigned; enantiomer 2) [Example 69, 1-[1-(5-Chloro-2-{4-methyl-6-[4-(2,2,2-trifluoroethyl)piperazin-1-yl]pyridin-3-yl}phenyl)piperidin-3-yl]-5-(difluoromethyl)-1H-pyrazole-4-carboxylic acid hydrochloride (Enantiomer 2)] | 45.5 | 30.0
O=C(O)c1cnn(C2CCCN(c3cc(Cl)ccc3-c3ccc(N4CCN(CCC(F)(F)F)CC4)nc3)C2)c1C(F)F (single isomer, unassigned; enantiomer 2) [Example 67, 1-[1-(5-Chloro-2-{6-[4-(3,3,3-trifluoropropyl)piperazin-1-yl]pyridin-3-yl}phenyl)piperidin-3-yl]-5-(difluoromethyl)-1H-pyrazole-4-carboxylic acid hydrochloride (Enantiomer 2)] | < 1 | <0.3
